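Method: 48-hour compound exposure of cells in 96-well plates, five concentrations, linear interpolation of endpoints. At the GI50, growth is halved. TGI: total growth inhibition.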 *1 amine or outer side, *2 acyl side, *3 side chain or, on linkers, in order; H or OH if unused. Where a SMILES comes first, the peptide text is derived from it. [ ]: non-standard residue; d: D form. X56 = CC[C@H](C)[C@H](OC(=O)[C@@H](C)[C@@H](CC)N[*:1])C(=O)[*:2]; X32 = C[C@H](N[*:1])C(=O)C(C)(C)C(=O)[*:2]; NMeY = CN[C@@H](Cc1ccc(O)cc1)C(=O)O; NMeL = CN[C@@H](CC(C)C)C(=O)O; NMeV = CN[C@H](C(=O)O)C(C)C
Experiments:
Assay in all cases: growth of human tumour cells (NCI), 48 h
[1] = system: DLD-1 colon
[2] = system: DMS 114 small cell lung
[3] = system: HOP-18 NSCLC
[4] = system: KM20L2 colon
[5] = system: LXFL 529 NSCLC
[6] = system: M19-MEL melanoma
[7] = system: RXF-631 renal
[8] = system: XF 498 CNS
[9] = system: MDA-N

SMILES | TGI [1] [µM] | TGI [2] [µM] | TGI [3] [µM] | TGI [4] [µM] | TGI [5] [µM] | TGI [6] [µM] | TGI [7] [µM] | TGI [8] [µM] | TGI [9] [µM] | also measured
N#C/C(=C\c1ccc(C(O)P(=O)(O)O)cc1)C(N)=O (centres undefined) | > 100 | > 100 | > 100 | > 100 | > 100 | > 100 | > 100 | > 100 | – | –
Cn1cnc([N+](=O)[O-])c1Sc1nnnn1-c1ccccc1 | 22.1 | 33 | 8.26 | – | 15.4 | 24.4 | 30.6 | 24.6 | – | –
S=c1nc(N2CCCCC2)ss1 | > 100 | 42.4 | 88.4 | > 100 | 54.2 | 52.3 | 79.4 | 44.7 | – | –
O=c1c2cccnc2ncn1CCN1CCCC1 | > 100 | > 100 | – | > 100 | > 100 | > 100 | – | > 100 | – | –
NS(=O)(=O)c1ccc(NC(=O)c2cccc3cc4ccccc4nc23)cc1 | > 100 | > 100 | > 100 | > 100 | > 100 | > 100 | > 100 | > 100 | > 100 | –
NNC(=O)/C(NC(=O)c1ccccc1)=C(\N)c1ccc(Cl)cc1 | > 100 | > 100 | > 100 | > 100 | > 100 | > 100 | – | – | – | –
Cc1c(N=Cc2ccc(N(CCC#N)CCC#N)cc2)c(=O)n(-c2ccccc2)n1C | > 100 | > 100 | > 100 | > 100 | > 100 | > 100 | – | > 80.6 | > 100 | –
CC1(O)CCC2(C#N)CCC1C2O (centres undefined) | > 100 | 31.1 | > 100 | > 100 | > 100 | > 100 | > 100 | > 100 | – | –
Cc1c2c(cc3c(=O)ccn(CCN(C)C)c13)c(=O)ccn2CCN(C)C | 28.7 | 30.1 | 58.6 | 20.8 | 19.8 | 30.2 | – | 22.9 | – | –
Nc1nc(-c2cccc([N+](=O)[O-])c2)cc(-c2cc(-c3cccc([N+](=O)[O-])c3)nc(N)n2)n1 | – | – | – | – | – | – | – | – | > 100 | –
COc1cc2c(c(OC)c1OC)-c1ccc(OC)c(=O)cc1[C@@H](N(C)C=O)CC2 | > 100 | – | > 100 | – | > 100 | > 100 | > 26.2 | > 23 | – | –
Cc1nc(C(N)=S)sc1C(=O)C/C(=N/N)C(=O)Nc1ccc(Cl)cc1 | – | – | – | – | – | – | – | – | > 100 | –
COc1ccccc1-c1cc(=O)c2ccc(OC)c(OC)c2o1 | – | – | – | – | – | – | – | – | > 100 | –
CC[C@H](C)[C@@H]1OC(=O)[C@@H](C)[C@@H](CC)NC(=O)[C@H](C)NC(=O)C(C)(C)C(=O)[C@H](C)NC(=O)[C@H](Cc2ccc(OC)cc2)N(C)C(=O)[C@H](C(C)C)N(C)C(=O)CNC(=O)[C@H](CC(C)C)N(C)C(=O)CNC1=O (cyclo(A[X56]G[NMeL]G[NMeV][NMeY](Me)[X32])) | 2.12 | 1.13 | 0.0425 | 16.7 | 0.0823 | 22.3 | – | 0.173 | – | –
CCOC(=O)/C(=C\c1ccc[nH]1)C(=O)c1ccccc1 | > 100 | > 100 | > 100 | > 100 | > 100 | > 100 | > 100 | > 100 | – | –
CCC(C(=O)c1ccccc1)C(CCCC(=O)Nc1c(C)cccc1C)N=O (centres undefined) | > 100 | – | > 100 | > 100 | > 100 | > 100 | > 100 | > 100 | – | –
C1COCCOCCOCCOCCO1.CC(=O)[CH-]C(C)=O.CC(=O)[CH-]C(C)=O.CC(=O)[CH-]C(C)=O.[V] | > 100 | 82.1 | 77.9 | 61.7 | 41.2 | – | – | – | – | GI50 [1]: 28 µM; GI50 [2]: 28.3 µM; GI50 [3]: 28.2 µM; GI50 [4]: 27.4 µM; GI50 [5]: 20.7 µM
COc1ccc(OC)c2c(=S)c3ccccc3[nH]c12 | > 100 | > 100 | – | > 100 | > 100 | > 100 | > 100 | > 100 | > 100 | –
CC(C)C(=O)/C=C/c1ccc(Cl)c(Cl)c1 | 34.2 | 42.3 | 23.5 | 37.8 | 40.2 | 32.3 | – | 25.1 | – | –
N#CC1CC2(C(=O)C1=O)c1ccccc1-c1ccccc12 (centres undefined) | > 100 | > 100 | > 100 | > 100 | > 100 | > 100 | – | – | – | –
CC/C=C/c1cc2cc[nH]c2c2c1C(C)C[C@@H]2C (some centres undefined) | > 100 | 51 | 73.7 | – | 41.9 | 77.3 | – | – | – | –

SMILES | TGI [1] [µM] | TGI [2] [µM] | TGI [3] [µM] | TGI [4] [µM] | TGI [5] [µM] | TGI [6] [µM] | TGI [7] [µM] | TGI [8] [µM] | TGI [9] [µM] | also measured
C=CCn1cc(C(=O)NC(=O)NCCCCCOC(=O)CCCCCCCCCCC(=O)OCCCCCNC(=O)NC(=O)c2cn(CC=C)c(=O)n(C)c2=O)c(=O)n(C)c1=O | > 100 | > 100 | > 100 | > 100 | > 100 | > 100 | – | > 100 | – | –
c1ccc(COC2(OCc3ccccc3)CC3OC2C2NN=NC32)cc1 (centres undefined) | 31.3 | – | 92.9 | > 100 | 29.3 | 32.2 | – | 35 | – | –
O=C(c1ccc(Cl)cc1)c1ccc(OCCSCCCCCCCCCCSCCOc2ccc(C(=O)c3ccc(Cl)cc3)cc2)cc1 | > 100 | – | – | > 100 | – | > 100 | > 100 | – | – | –
C1=Nc2ccccc2C=Nc2ccccc2C=Nc2ccccc2C=Nc2ccccc21.[Cl-].[Pt+2] | 98.4 | 46.2 | > 100 | 58 | 60 | > 100 | 77.9 | 51.1 | – | GI50 [1]: 17.8 µM; GI50 [2]: 12.1 µM; GI50 [3]: 22.3 µM; GI50 [4]: 21 µM; GI50 [5]: 10.3 µM; GI50 [6]: 22.2 µM; GI50 [7]: 30.9 µM; GI50 [8]: 18.4 µM
COc1ccc(-c2cc(=O)c3c(OC)c(OC)c(OC)c(OC)c3o2)c(OC)c1 | – | – | – | – | – | – | – | – | > 100 | –
Nc1ncnc2c1cnn2Cc1ccc(Cl)cc1 | – | – | – | – | – | – | – | – | > 100 | –
COC(=O)C1C(OCc2ccccc2)C2CCC1(OC)C=C2C (centres undefined) | > 100 | > 100 | > 100 | > 100 | > 100 | > 100 | – | > 86.7 | – | –
CSc1ncnc2c1CCN2 | – | > 100 | – | – | > 100 | > 100 | – | – | 8.6 | –
COc1ccc(/C=C/NC=O)cc1 | – | – | – | – | – | – | – | – | > 100 | –
C=CC1=C(C)C2=NC1=CC1=NC(=CC3=C(C)C4=C(O)C(C(=O)OC)C(=C5NC(=C2)C(C)C5CCC(=O)OC)C4=N3)C(CC)=C1C (centres undefined) | – | – | – | – | – | – | – | – | > 100 | –
O=c1c2ccccc2nc(-c2cccc(Cl)c2)n1NCC1(O)OCC(O)C(O)C1O (centres undefined) | – | > 100 | – | > 100 | > 100 | > 100 | > 100 | – | – | –
CC(=O)/C=C/c1ccc(C)cc1 | > 100 | > 100 | > 100 | > 100 | > 100 | > 100 | – | – | – | –
C/C(=N\N=C(N)N)C(CN(C)C)C(c1ccccc1)c1c(O)c2ccccc2oc1=O (centres undefined) | > 100 | > 100 | > 100 | > 100 | > 100 | > 100 | – | > 100 | > 100 | –
CC1(C)CC2(C)CC1CC2NC(=O)CCN1CCOCC1 (centres undefined) | – | – | – | – | – | – | – | – | > 100 | –
COc1cc(/C=C(\OC(C)=O)c2ccc3c(c2)OCO3)cc(OC)c1OC | 60.6 | 29 | > 100 | > 100 | 34.9 | 30.9 | – | 27.7 | – | –
Cc1ccc(Oc2ccc([N+](=O)[O-])cc2[N+](=O)[O-])c(C)c1 | > 100 | > 100 | – | – | > 100 | > 100 | > 100 | > 100 | – | –
NC(CC1=CCC=CC1)C(=O)O (centres undefined) | – | – | – | – | – | – | – | – | > 100 | –
O=C(NCc1ccncc1)C1COc2cc(-c3cc(=O)c4ccccc4o3)ccc2O1 (centres undefined) | > 100 | – | – | > 100 | > 100 | > 100 | – | > 100 | – | –
O=C(/C=C/c1ccccc1Cl)c1ccc(Cl)cc1Cl | 32.3 | 26.3 | 31.2 | 28.3 | 29.7 | 31.9 | 34.6 | – | – | –
O=C(CC1C=CCS1(=O)=O)NCc1ccccc1 (centres undefined) | – | – | – | – | – | – | – | – | > 100 | –

From PubChem BioAssay (NCI)
